Where “and” joins values, the source holds several entries; their conditions need not be identical. Equal values may be shown once.
Tests used:
[1] = system: moderate to severe inflammatory acne; conditions: 500 mg for three consecutive days in a 10 day cycle, with topical erythromycin; cited from earlier work
[2] = system: severe acne vulgaris with multiple nodules; test: Open label clinical study of daily or pulsed oral azithromycin, nodule counts over 3 months; type: in vivo, human; conditions: for Nodules in the 2 non-responding patients two months after initiation of therapy: single patients
Excerpt: The invention is further illustrated by the following non-limiting examples. In the examples, patients included in the study were male or female subjects of any race, 16 years of age or older. presenting with 20-60 inflammatory lesions (papules or pustules), 20 to 150 non-inflammatory lesions (comedones or whiteheads), and 3 to 10 nodules. Patients having severe acne vulgaris with multiple nodules were enrolled in an open label clinical study in which each patient received a daily oral dose of 250 mg of azithromycin for the 3-month duration of the study. Lesion counts were recorded at baseline before the initiation of treatment and at 1, 2, and 3 months following initiation of treatment. […] These 2 patients had 9 and 8 nodules, respectively, at baseline and 8 and 13 nodules, respectively two months after initiation of therapy. Of the favorable responders, two patients who began the study with 3 nodules had 2 nodules at the end of the three month study. The remaining 14 patients who responded favorably to treatment had on average 6.7 nodules at baseline (range 4 to 10 nodules) and improved to having no nodules (10 patients) or at most 1 nodule (4 patients) by the end of the three month course of treatment. Another set of patients with severe acne vulgaris was enrolled in an open label clinical study as in Example 1, except that each patient received a daily oral dose of 250 mg of azithromycin for one week followed by one week of no azithromycin, which cycle was repeated for the 3-month duration of the study. […] These 2 patients had 6 and 10 nodules, respectively, at baseline and 5 and 8 nodules, respectively, two months after initiation of therapy. Three patients had partial clearing of nodules during the study. These patients had 9, 10, and 6 nodules, respectively, at baseline and 3, 4, and 2 nodules, respectively, at the end of the study. Another set of patients with severe acne vulgaris was enrolled in an open label clinical study as in Example 1, except that each patient received a daily oral dose of 125 mg of azithromycin for the 3-month duration of the study. […] These 2 patients had 8 and 3 nodules, respectively, at baseline and 10 and 4 nodules, respectively two months after initiation of therapy. The 18 patients who responded favorably to treatment had on average 5.1 nodules at baseline (range 3 to 8 nodules) and improved to having no nodules (13 patients) or at most 1 nodule (5 patients) at the end of the three month course of treatment.

[3] = system: lesions of inflammatory acne; conditions: pulse-dose regimen, three-times-weekly, versus daily doxycycline, erythromycin, minocycline, tetracycline; cited from earlier work
nodular cystic acne = conditions: Pigatto study, in words; cited from earlier work
[4] = Example 1, 250 mg/day oral, 3 months, 18 patients
[5] = Example 2, 250 mg/day every other week, 3 months, 18 patients
[6] = Example 3, 125 mg/day oral, 3 months, 20 patients
[7] = Total Examples 1 to 3, 56 patients

## CC[C@H]1OC(=O)[C@H](C)[C@@H](O[C@H]2C[C@@](C)(OC)[C@@H](O)[C@H](C)O2)[C@H](C)[C@@H](O[C@@H]2O[C@H](C)C[C@H](N(C)C)[C@H]2O)[C@](C)(O)C[C@@H](C)CN(C)[C@H](C)[C@@H](O)[C@]1(C)O [azithromycin, 9-deoxo-9a-aza-9a-methyl-9a-homoerythromycin A]
[1]
  Efficacy in treating moderate to severe acne vulgaris: effective
[2]; Example 1, 250 mg daily oral, of 18 patients in study longer than one month
  Number of patients that did not respond favorably to treatment: 2
[2]; Example 1, 250 mg daily, of remaining 14 favorable responders, average 6.7 nodules at baseline
  Number of patients improved to at most 1 nodule by end of three month treatment: 4 patients
[2]; Example 1, 250 mg daily, of remaining 14 favorable responders, average 6.7 nodules at baseline (range 4 to 10)
  Number of patients improved to having no nodules by end of three month treatment: 10 patients
[2]; Example 1, 250 mg daily, 9 and 8 nodules at baseline, respectively
  Nodules in the 2 non-responding patients two months after initiation of therapy: 8 nodules and 13 nodules
[2]; Example 1, 250 mg daily, two patients who began with 3 nodules
  Nodules at the end of the three month study in two favorable responders: 2 nodules
[2]; [4]
  Number of good responders: 16
  Percentage of good responders: 88.9%
[2]; Example 1, 250 mg/day, 16 good responders
  Percentage of nodules cleared in good responders: 92.0%
[2]; Example 1, 250 mg/day, 16 good responders, nodules before 100
  Nodules in good responders after treatment: 8
[2]; Example 1, 250 mg/day, all 18 patients
  Percentage of nodules cleared: 75.2%
[2]; Example 1, 250 mg/day, all 18 patients, number of nodules before 117
  Nodules remaining after treatment: 29
[2]; Example 2, 250 mg daily every other week, of remaining 13 favorable responders, average 6.2 nodules at baseline
  Number of patients improved to at most 1 nodule at end of three month treatment: 3 patients
[2]; Example 2, 250 mg daily every other week, of remaining 13 favorable responders, average 6.2 nodules at baseline (range 3 to 10)
  Number of patients improved to having no nodules at end of three month treatment: 10 patients
[2]; Example 2, 250 mg daily every other week, 6 and 10 nodules at baseline, respectively
  Nodules in the 2 non-responding patients two months after initiation of therapy: 5 nodules and 8 nodules
[2]; Example 2, 250 mg daily every other week, single patients, 9, 10 and 6 nodules at baseline, respectively
  Nodules at the end of the study in three patients with partial clearing: 3 nodules and 4 nodules and 2 nodules
[2]; Example 2, 250 mg daily one week on, one week off, of 18 patients
  Number of patients that did not respond favorably to treatment: 2
[2]; [5]
  Number of good responders: 16
  Percentage of good responders: 88.9%
[2]; Example 2, 250 mg/day every other week, 16 good responders
  Percentage of nodules cleared in good responders: 87.9%
[2]; Example 2, 250 mg/day every other week, 16 good responders, nodules before 99
  Nodules in good responders after treatment: 12
[2]; Example 2, 250 mg/day every other week, all 18 patients
  Percentage of nodules cleared: 78.3%
[2]; Example 2, 250 mg/day every other week, all 18 patients, number of nodules before 115
  Nodules remaining after treatment: 25
[2]; Example 3, 125 mg daily oral, of 20 patients
  Number of patients that did not respond favorably to treatment: 2
[2]; Example 3, 125 mg daily, of 18 favorable responders, average 5.1 nodules at baseline
  Number of patients improved to at most 1 nodule at end of three month treatment: 5 patients
[2]; Example 3, 125 mg daily, of 18 favorable responders, average 5.1 nodules at baseline (range 3 to 8)
  Number of patients improved to having no nodules at end of three month treatment: 13 patients
[2]; Example 3, 125 mg daily, 8 and 3 nodules at baseline, respectively
  Nodules in the 2 non-responding patients two months after initiation of therapy: 10 nodules and 4 nodules
[2]; [6]
  Number of good responders: 18
  Percentage of good responders: 90.0%
[2]; Example 3, 125 mg/day, 18 good responders
  Percentage of nodules cleared in good responders: 94.6%
[2]; Example 3, 125 mg/day, 18 good responders, nodules before 92
  Nodules in good responders after treatment: 5
[2]; Example 3, 125 mg/day, all 20 patients
  Percentage of nodules cleared: 81.6%
[2]; Example 3, 125 mg/day, all 20 patients, number of nodules before 103
  Nodules remaining after treatment: 19
[2]; Total Examples 1 to 3, 50 good responders, nodules before 291
  Nodules in good responders after treatment: 25
[2]; [7]
  Number of good responders: 50
  Percentage of nodules cleared: 78.2%
[2]; Total Examples 1 to 3, 56 patients, number of nodules before 335
  Nodules remaining after treatment: 73
[2]; systemic administration, Examples 1 to 3
  Efficacy in treating nodular acne vulgaris, including severe nodular acne vulgaris: highly efficacious
[3]
  Efficacy in treating lesions of inflammatory acne: as effective as other antibiotics tested

## CC1=C(/C=C/C(C)=C/C=C/C(C)=C\C(=O)O)C(C)(C)CCC1 [isotretinoin]
Nodular cystic acne
  Efficacy in treating nodular cystic acne: highly efficacious

From patent publication US20100216732A1, “Azithromycin for the treatment of nodular acne” (priority 2006, published 2010)
